Legend:
[1] = tested on: B. fragilis mixed with E. coli and P. mirabilis; format: cell-based
[2] = tested on: C. perfringens mixed with E. coli and P. mirabilis; format: cell-based
[3] = tested on: P. levii mixed with E. coli and P. mirabilis; format: cell-based
[4] = tested on: P. anaerobius mixed with E. coli and P. mirabilis; format: cell-based
[5] = tested on: F. nucleatum mixed with E. coli and P. mirabilis; format: cell-based
Fusobacterium nucleatum = details: 48 hours, cultures of Table 4
[6] = tested on: Peptostreptococcus anaerobius; details: 48 hours, cultures of Table 4

[N-]=[N+]=[N-] [Azide, sodium azide]
Lowest concentration of azide in the tube that successfully separated the anaerobe [1]: 0.2 mg/mL
Lowest concentration of azide in the tube that successfully separated the anaerobe [2]: 0.1 mg/mL
Lowest concentration of azide in the tube that successfully separated the anaerobe [3]: 0.1 mg/mL
Lowest concentration of azide in the tube that successfully separated the anaerobe [4]: 0.1 mg/mL
Lowest concentration of azide in the tube that successfully separated the anaerobe [5]: 0.1 mg/mL
Concentration of azide that inhibited growth in anoxic broth (Escherichia coli): ≤ 0.1 mg/mL
Concentration of azide at which swarming is inhibited (Proteus mirabilis): above 0.1 mg/ml
Level of growth (below visible turbidity) (Fusobacterium nucleatum): less than 10^7 CFU/ml
Level of growth (below visible turbidity) [6]: less than 10^7 CFU/ml
